The values below come from publication PMC7866079, “Investigation of Receptor Heteromers Using NanoBRET Ligand Binding” (International Journal of Molecular Sciences, 2021).

For test [1], the target named is T1, β2AR (Homo sapiens, UniProt P07550).
T1 construct: host or cells: HEK293FT, transient transfection
Description: NanoBRET saturation ligand binding, cells expressing Nluc-β2AR. The protocol:
(§1) All individual experiments were conducted with duplicate wells.
(§2) All data were presented and analyzed using GraphPad Prism 8.0. Saturation binding data were fitted with one-site nonlinear regression for specific binding. Competition binding data were fitted using logarithmic nonlinear regression (three parameter). Statistical analysis was performed as described in the relevant figure/table legends or in the text, with p < 0.05 considered significant.

Test [2] concerns the target T2, AT1-β2AR heteromer (Homo sapiens, UniProt P07550).
T2 construct: expressed in transfected cells; host or cells: HEK293FT, transient cotransfection
Description: NanoBRET saturation ligand binding, Receptor-HIT configuration, cells expressing Nluc-AT1 + β2AR. Particulars: mean ± SEM, n = 8, BODIPY-propranolol saturation, non-specific binding with 10 μM propranolol, read-out: Kd (affinity of binding to AT1-β2AR heteromers). The protocol: as §1, §2
(BRET reads energy transfer from a luciferase to a nearby fluorophore.)

The target of test [3] is T3, AT1 receptor (Homo sapiens, UniProt P30556).
T3 construct: host or cells: HEK293FT, transient transfection
T3 sequence (P30556 1-359): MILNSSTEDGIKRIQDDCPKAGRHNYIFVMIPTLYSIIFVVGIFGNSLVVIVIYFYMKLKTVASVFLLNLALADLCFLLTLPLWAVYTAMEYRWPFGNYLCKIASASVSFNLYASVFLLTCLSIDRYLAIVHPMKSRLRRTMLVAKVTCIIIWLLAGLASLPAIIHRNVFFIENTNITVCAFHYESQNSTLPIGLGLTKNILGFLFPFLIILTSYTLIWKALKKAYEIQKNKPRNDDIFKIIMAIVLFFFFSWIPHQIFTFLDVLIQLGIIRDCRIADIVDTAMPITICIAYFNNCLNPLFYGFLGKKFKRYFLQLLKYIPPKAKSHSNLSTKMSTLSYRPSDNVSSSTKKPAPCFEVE
Description: NanoBRET competition binding of TAMRA-AngII, cells expressing Nluc-AT1. The following applies: various concentrations of TAMRA-AngII, increasing concentrations of competitor. The protocol: Figure 8 Competition binding of TAMRA-AngII to the AT1 receptor and the AT1-AT2 heteromer.
The relative BRET ratio was calculated by normalizing the data, as described in the figure legends. All individual experiments were conducted with duplicate wells.

T1 sequence (P07550 whole entry): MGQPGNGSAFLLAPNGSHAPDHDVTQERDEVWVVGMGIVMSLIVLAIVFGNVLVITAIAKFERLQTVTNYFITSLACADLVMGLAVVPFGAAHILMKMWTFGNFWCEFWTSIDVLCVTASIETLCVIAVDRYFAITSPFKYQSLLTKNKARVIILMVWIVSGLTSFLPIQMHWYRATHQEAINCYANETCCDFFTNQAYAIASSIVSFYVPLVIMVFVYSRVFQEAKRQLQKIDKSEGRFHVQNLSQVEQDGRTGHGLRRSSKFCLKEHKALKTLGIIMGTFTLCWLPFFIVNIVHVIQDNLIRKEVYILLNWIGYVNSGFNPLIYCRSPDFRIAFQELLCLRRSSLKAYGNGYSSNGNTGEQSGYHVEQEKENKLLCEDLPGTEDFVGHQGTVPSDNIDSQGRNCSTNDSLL
T2 sequence (P07550 whole entry, one chain of several): as the sequence (P07550 whole entry) above

Regarding `CC[C@H](C)[C@H](NC(=O)[C@H](Cc1ccc(O)cc1)NC(=O)[C@@H](NC(=O)[C@H](CCCNC(=N)N)NC(=O)[C@H](CC(=O)O)NC(=O)CCCCCNC(=O)COc1ccc(/C=C/c2ccc3n2[B-](F)(F)[N+]2=C(c4cccs4)C=CC2=C3)cc1)C(C)C)C(=O)N[C@@H](Cc1c[nH]cn1)C(=O)N1CCC[C@H]1C(=O)N[C@@H](Cc1ccccc1)C(=O)O` [BODIPY-AngII], in test [1] (cells expressing Nluc-β2AR only, presence or absence of 10 μM propranolol), the “specific binding to Nluc-β2AR” value is “no specific binding”. The Kd (in general, the concentration at which binding is half-saturated) turned out to be 3.9 ± 0.5 nM in test [1] (mean ± SEM, n = 4, cells expressing Nluc-β2AR, BODIPY-propranolol saturation, non-specific binding with 10 μM propranolol, read-out: Kd (affinity of binding to β2ARs)) and 8.8 ± 4 nM in test [2].
In the case of `Cc1cc(Cn2cnc3c2C[C@@H](C(=O)O)N(C(=O)C(c2ccccc2)c2ccccc2)C3)ccc1N(C)C` [PD 123319], the “displacement of TAMRA-AngII bound to Nluc-AT1” value in test [3] was “unable to see any displacement”.
